Patent publication US7049344B2 (Wilex Biotechnology GmbH, priority 2000, dated 2006)
Counter-ions that a name gives are not always drawn. One block for each compound: values may come before it.

Legend:
uPA (sc-urokinase) = target: T1, uPA (sc-urokinase) (Homo sapiens, UniProt P00749); assay: In-vitro inhibition of urokinase, chromogenic substrate, Dixon Ki; type: biochemical; settings: 25° C, pH 8.0; average of at least three determinations; read-out: K1 uPA
T1 construct: purchased Ribosepharm GmbH, Haan, Germany
Protocol: (§1) The uPA inhibitor activity was determined by incubating 200 μl of Tris buffer (0.05 mol/l, containing the inhibitor, 0.154 mol/l NaCl, 5% ethanol, pH 8.0), 25 μl of substrate (Pefachrome UK or BZ-β-Ala-Gly-Arg-pNA in H2O; Pentapharm Ltd, Basle, Switzerland) and 50 μl of sc-urokinase (Ribosepharm GmbH, Haan, Germany) or another corresponding protease at 25° C. After 3 min, the reaction was interrupted by adding 25 μl of acetic acid (50%) and absorbance at 405 nm was determined by means of a microplate reader (MR 5000, Dynatech, Denkendorf, Germany). The Ki values were determined by linear regression according to Dixon by means of a computer program. The Ki values are the average of at least three determinations, and the standard deviation was below 25%.

Thrombin = Thrombin (UniProt P00735); assay: In-vitro protease inhibition, chromogenic substrate, Dixon Ki; type: biochemical; settings: 25° C, pH 8.0; read-out: K1 Thrombin
Protocol: as §1

Plasmin = Plasmin (Homo sapiens, UniProt P00747); assay: as above; type: biochemical; settings: 25° C, pH 8.0; read-out: K1 Plasmin
Chain of Plasmin (P00747 581-810 limits assumed, species assumed): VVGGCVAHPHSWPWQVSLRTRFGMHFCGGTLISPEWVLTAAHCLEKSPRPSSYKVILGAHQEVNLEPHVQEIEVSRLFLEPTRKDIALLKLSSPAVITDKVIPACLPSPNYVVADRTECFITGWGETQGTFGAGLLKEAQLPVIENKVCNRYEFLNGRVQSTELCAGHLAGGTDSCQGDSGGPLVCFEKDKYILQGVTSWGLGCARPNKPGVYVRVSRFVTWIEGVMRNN
Chain of Plasmin (P00747 97-580 partner limits assumed, species assumed): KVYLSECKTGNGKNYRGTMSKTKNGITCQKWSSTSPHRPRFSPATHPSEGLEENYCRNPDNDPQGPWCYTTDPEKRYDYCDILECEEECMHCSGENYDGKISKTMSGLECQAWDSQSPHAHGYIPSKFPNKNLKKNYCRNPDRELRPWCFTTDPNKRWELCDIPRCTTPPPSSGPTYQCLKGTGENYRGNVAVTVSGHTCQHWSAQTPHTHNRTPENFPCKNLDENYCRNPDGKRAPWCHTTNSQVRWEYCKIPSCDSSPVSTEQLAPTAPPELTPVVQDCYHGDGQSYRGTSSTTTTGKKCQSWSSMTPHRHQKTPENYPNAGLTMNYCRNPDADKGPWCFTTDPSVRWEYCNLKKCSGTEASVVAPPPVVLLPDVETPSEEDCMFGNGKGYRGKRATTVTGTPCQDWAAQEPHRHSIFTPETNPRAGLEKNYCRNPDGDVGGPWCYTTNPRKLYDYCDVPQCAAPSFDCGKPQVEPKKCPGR
Protocol: as §1

Trypsin = target: T2, Trypsin (UniProt P00760); assay: as above; type: biochemical; settings: 25° C, pH 8.0; read-out: K1 Trypsin
T2 sequence (P00760 1-246): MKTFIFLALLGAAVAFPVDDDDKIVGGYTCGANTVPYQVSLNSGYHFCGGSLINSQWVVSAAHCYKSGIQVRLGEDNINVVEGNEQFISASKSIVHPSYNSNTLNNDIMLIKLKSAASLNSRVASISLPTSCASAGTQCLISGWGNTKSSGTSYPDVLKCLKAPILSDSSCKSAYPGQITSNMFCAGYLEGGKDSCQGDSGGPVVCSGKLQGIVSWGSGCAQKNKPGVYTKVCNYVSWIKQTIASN
Protocol: as §1

FXA = FXA (UniProt P00743); assay: as above; type: biochemical; settings: 25° C, pH 8.0; read-out: K1 FXA
Protocol: as §1

[1] = tested on: DU145 tumors (a prostate adenocarcinoma cell line); settings: SCID mice, oral, daily dose of 125 to 250 mg/kg/day; cited from earlier work
mouse breast cancer = settings: cited from earlier work
rat prostate cancer = settings: syngeneic model of rat prostate cancer; cited from earlier work
[2] = tested on: rat breast adenocarcinoma cells; settings: after i.v. inoculation of rat breast adenocarcinoma cells; cited from earlier work

- Ki (uPA (sc-urokinase)): 51 µM
- Ki (Thrombin): > 1000 µM
- Ki (Plasmin): > 1000 µM
- Ki (Trypsin): > 1000 µM
- Ki (FXA): > 1000 µM
Compound: N=C(N)Nc1ccc(CNC(=O)[C@@H](CO)c2ccccc2)cc1 (racemic) [ST-390, N-(4-guanidinobenzyl)-D,L-tropamide Hydrochloride]

- Ki (uPA (sc-urokinase)): < 10 µM
Compound: N=C(N)Nc1ccc(CNC(=O)C(C(=O)O)c2ccccc2)cc1 (centres unmarked) [ST-406, N-(4-guanidinobenzyl) 2-(hydroxycarbonyl)-2-phenylacetamide Hydrochloride]

The next lines start with the compound.

Compound: N=C(N)Nc1ccc(CNC(=O)C(C(=O)OCc2ccccc2)C23CC4CC(CC(C4)C2)C3)cc1 (centres unmarked) [ST-100]
- Ki (uPA (sc-urokinase)): < 1 µM

Compound: N=C(N)c1ccc(N)cc1 [p-Aminobenzamidine]
- growth rate of DU145 tumors [1]: distinct decrease
- side effects [1]: negligible

Compound: N=C(N)c1cc2c(I)cccc2s1 [B428, 4-iodobenzo[b]thiophene-2-carboxamidine]
- primary tumor growth (mouse breast cancer; B428 administered together with the antiestrogen tamoxifen): further decrease in primary tumor growth
- tumor growth and metastases formation (mouse breast cancer; syngeneic model of mouse breast cancer): decrease of tumor growth and metastases formation
- tumor growth and metastases formation (rat prostate cancer): decrease of tumor growth and metastases formation

Compound: N=C(N)NC(=O)c1nc(Cl)c(N)nc1N [Amiloride]
- formation of lung metastases [2]: prevents the formation of lung metastases

Compound: N=C(N)Nc1ccc(CNC(=O)C(C(=O)OCc2ccccc2)c2ccccc2)cc1 (centres unmarked) [ST-401, N-(4-guanidinobenzyl) 2-(benzyloxycarbonyl)-2-phenylacetamide hydrochloride]
- Ki (uPA (sc-urokinase)): 1.4 µM
- Ki (Thrombin): > 1000 µM
- Ki (Plasmin): > 1000 µM
- Ki (FXA): > 1000 µM
